Measurements taken from PMC10828244, “Covalently Binding Adenosine A3 Receptor Agonist ICBM Irreversibly Reduces Voltage-Gated Ca^2+ Currents in Dorsal Root Ganglion Neurons” (Purinergic Signalling, 2023).

Assays:
[1] = target: T1, adenosine A3 receptor (A3AR) (Rattus norvegicus, UniProt P28647); assay: whole-cell patch clamp of Ca2+ currents in rat DRG neurons; washout, MRS1523 block and occlusion of Cl-IB-MECA; format: cell-based
T1 construct: gene Adora3; native receptor in isolated rat DRG neurons
T1 sequence (P28647 1-320): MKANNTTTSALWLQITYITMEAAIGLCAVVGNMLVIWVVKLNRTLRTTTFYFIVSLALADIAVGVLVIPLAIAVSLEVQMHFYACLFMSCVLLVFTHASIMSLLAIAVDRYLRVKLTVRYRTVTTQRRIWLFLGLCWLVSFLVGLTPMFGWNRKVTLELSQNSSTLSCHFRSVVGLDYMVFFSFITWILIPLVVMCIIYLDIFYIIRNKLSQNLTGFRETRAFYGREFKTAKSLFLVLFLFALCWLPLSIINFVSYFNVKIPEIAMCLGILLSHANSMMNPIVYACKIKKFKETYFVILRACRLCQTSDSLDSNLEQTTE

[2] = target: T1, adenosine A3 receptor (A3AR); assay: whole-cell patch clamp of Ca2+ currents in rat DRG neurons ([…]); effect occluded by ICBM pre-incubation; format: cell-based

Structure (SMILES) | EC50 [1] [nM] | whole-cell patch clamp of Ca2+ currents in rat DRG neurons (30 nM); effect occlu [2]
CNC(=O)[C@H]1O[C@@H](n2cnc3c(NCc4cccc(N=C=S)c4)ncnc32)[C@H](O)[C@@H]1O [ICBM, N^6-(3-Isothiocyanatobenzyl)-5′-N-methylcarboxamidoadenosine] | 11.7 | –
CNC(=O)[C@H]1O[C@@H](n2cnc3c(NCc4cccc(I)c4)nc(Cl)nc32)[C@H](O)[C@@H]1O [Cl-IB-MECA, 2-Chloro-N^6-(3-iodobenzyl)-adenosine-5′-N-methyluronamide] | – | the prototypical A3AR agonist, Cl-IB-MECA, significantly decreases ICa (Fig. 2A–B) in these cells
